Assay results: US20210205292A1, “INHIBITORS OF CREB-CBP INTERACTION FOR TREATMENT OF LEUKEMIA” (The Board of Trustees of the Leland Stanford Junior …, priority 2016, published 2021)

Tests used:
Format in all cases: cell-based
[1] = test system: HL60 (Human promyelocytic leukemia cell line); test: CellTiter Glo assay in HL60 cells
Procedure: (§1) The compounds prepared according to the methods described herein and tested for activity in the CellTiter Glo assay in HL60 (Human promyelocytic leukemia cell line), Jukat (human T lymphocyte cell line for acute T cell leukemia) and/or Nalm6 (human ALL cell line) cells.
(§2) Compounds were prepared according to the methods described herein and tested for activity in the CellTiter Glo assay in HL60 (Human promyelocytic leukemia cell line), Jukat (human T lymphocyte cell line for acute Tcell leukemia) and/or Nalm6 (human ALL cell line) cells.

[2] = test system: Jukat (human T lymphocyte cell line for acute T cell leukemia); test: CellTiter Glo assay in Jukat cells
Procedure: as §1, §2

[3] = test system: Nalm6 (human ALL cell line); test: CellTiter Glo assay in Nalm6 cells
Procedure: as §1, §2

SMILES	IC50 ([1]; HL-60, second Table 4)	IC50 ([2]; second Table 4)	IC50 ([3]; NALM-6, second Table 4)	IC50 ([1]; HL-60, Table 5)	IC50 ([2]; Table 5)	IC50 ([3]; NALM-6, Table 5)
O=C(Nc1ccc(C(F)(F)F)cc1)c1cc(F)ccc1O [Compound 44]	< 1000 nM	< 1000 nM	< 1000 nM			
O=C(Nc1ccc(OC(F)(F)F)cc1)c1cc(F)ccc1O [Compound 45]	< 1000 nM	< 1000 nM	1000 to 10000 nM			
O=C(Nc1ccc(OC(F)(F)F)c(Cl)c1)c1cc(F)ccc1O [Compound 46]	< 1000 nM	< 1000 nM	< 1000 nM			
O=C(Nc1ccc(Cl)c(C(F)(F)F)c1)c1cc(F)ccc1O [Compound 47]	< 1000 nM	> 10000 nM	< 1000 nM			
O=C(Nc1ccc(F)c(C(F)(F)F)c1)c1cc(F)ccc1O [Compound 48]	< 1000 nM	< 1000 nM	1000 to 10000 nM			
Cc1ccc(NC(=O)c2cc(F)ccc2O)cc1C(F)(F)F [Compound 49]	< 1000 nM	1000 to 10000 nM	1000 to 10000 nM			
O=C(Nc1cccc(C(F)(F)F)c1)c1cc(F)ccc1O [Compound 50]	< 1000 nM	< 1000 nM	1000 to 10000 nM			
O=C(Nc1cc(C(F)(F)F)cc(C(F)(F)F)c1)c1cc(F)ccc1O [Compound 51]	< 1000 nM	< 1000 nM	< 1000 nM			
O=C(Nc1cccc(OC(F)(F)F)c1)c1cc(F)ccc1O [Compound 52]	< 1000 nM	< 1000 nM	1000 to 10000 nM			
O=C(Nc1ccc(-c2ccccc2)cc1)c1cc(F)ccc1O [Compound 53]	1000 to 10000 nM					
COc1ccc(NC(=O)c2cc(F)ccc2O)cc1 [Compound 54]	1000 to 10000 nM	> 10000 nM	> 10000 nM			
COc1cc(NC(=O)c2cc(F)ccc2O)ccc1F [Compound 55]	1000 to 10000 nM					
Cc1cc(NC(=O)c2cc(F)ccc2O)ccc1F [Compound 56]	1000 to 10000 nM	< 1000 nM	1000 to 10000 nM			
CCOC(=O)c1ccc(NC(=O)c2cc(F)ccc2O)cc1 [Compound 57]	1000 to 10000 nM	1000 to 10000 nM	1000 to 10000 nM			
CCOC(=O)c1cccc(NC(=O)c2cc(F)ccc2O)c1 [Compound 58]	< 1000 nM	1000 to 10000 nM	1000 to 10000 nM			
O=C(Nc1ccccc1F)c1cc(F)ccc1O [Compound 61]	1000 to 10000 nM					
O=C(Nc1ccccc1C(F)(F)F)c1cc(F)ccc1O [Compound 62]	1000 to 10000 nM					
Cc1ccc(C(F)(F)F)cc1NC(=O)c1cc(F)ccc1O [Compound 63]	< 1000 nM	< 1000 nM	1000 to 10000 nM			
N#Cc1ccc(NC(=O)c2ccc3cccnc3c2O)cc1 [Compound 64]				100 to 1000 nM	100 to 1000 nM	< 100 nM

SMILES	IC50 ([1]; HL-60, second Table 4)	IC50 ([2]; second Table 4)	IC50 ([3]; NALM-6, second Table 4)	IC50 ([1]; HL-60, Table 5)	IC50 ([2]; Table 5)	IC50 ([3]; NALM-6, Table 5)
N#Cc1ccc(NC(=O)c2cc(-c3ccccc3)c3cccnc3c2O)cc1 [Compound 65]				100 to 1000 nM	100 to 1000 nM	100 to 1000 nM
O=C(Nc1ccc(C(F)(F)F)cc1)c1ccc2cccnc2c1O [Compound 66]				100 to 1000 nM	100 to 1000 nM	100 to 1000 nM
O=C(Nc1ccc(Cl)cc1)c1ccc2cccnc2c1O [Compound 67]				100 to 1000 nM	100 to 1000 nM	100 to 1000 nM
O=C(Nc1ccc(Br)c(Cl)c1)c1ccc2cccnc2c1O [Compound 68]				100 to 1000 nM	100 to 1000 nM	100 to 1000 nM
O=C(Nc1cc(F)cc(F)c1)c1ccc2cccnc2c1O [Compound 69]				100 to 1000 nM	100 to 1000 nM	100 to 1000 nM
O=C(Nc1cc(C(F)(F)F)cc(C(F)(F)F)c1)c1ccc2cccnc2c1O [Compound 70]				1000 to 10000 nM	100 to 1000 nM	1000 to 10000 nM
N#Cc1ccc(NC(=O)c2cc(Br)c3cccnc3c2O)cc1 [Compound 71]				100 to 1000 nM	< 100 nM	< 100 nM
N#Cc1ccc(NC(=O)c2cc(-c3ccco3)c3cccnc3c2O)cc1 [Compound 72]				100 to 1000 nM	100 to 1000 nM	100 to 1000 nM
Cc1cc(C(=O)Nc2ccc(C#N)cc2)c(O)c2ncccc12 [Compound 73]				1000 to 10000 nM	100 to 1000 nM	100 to 1000 nM
CC(=O)Oc1c(C(=O)Nc2ccc(C#N)cc2)ccc2cccnc12 [Compound 74]				100 to 1000 nM		
N#Cc1ccc(NC(=O)c2ccc3cccnc3c2O)c(Cl)c1 [Compound 77]				100 to 1000 nM	100 to 1000 nM	100 to 1000 nM
Cc1cc(C#N)ccc1NC(=O)c1ccc2cccnc2c1O [Compound 78]				100 to 1000 nM	100 to 1000 nM	< 100 nM
Cc1cccc(Cl)c1NC(=O)c1ccc2cccnc2c1O [Compound 79]				1000 to 10000 nM	1000 to 10000 nM	1000 to 10000 nM
N#Cc1ccc(Cl)c(NC(=O)c2ccc3cccnc3c2O)c1 [Compound 80]				100 to 1000 nM	100 to 1000 nM	100 to 1000 nM
O=C(Nc1ccc(Cl)cc1Cl)c1ccc2cccnc2c1O [Compound 81]				100 to 1000 nM	100 to 1000 nM	100 to 1000 nM
O=C(Nc1c(Cl)cccc1Cl)c1ccc2cccnc2c1O [Compound 87]				100 to 1000 nM		
N#Cc1ccc(C#N)c(NC(=O)c2ccc3cccnc3c2O)c1 [Compound 88]				100 to 1000 nM		
Cc1ccc(NC(=O)c2ccc3cccnc3c2O)c(C)c1 [Compound 89]				1000 to 10000 nM		
O=C(Nc1ccc([N+](=O)[O-])cc1)c1cc(F)ccc1O [Compound 160]	< 1000 nM					
